Data reported in US11723897B2, “Fatty acids as anti-inflammatory agents” (University of Pittsburgh—Of the Commonwealth System of …, priority 2009, dated 2023).

Experiments:
PPARγ = target: T1, PPARγ (Homo sapiens, UniProt P37231); assay: PPARγ beta-lactamase reporter assay; type: cell-based; conditions: concentrations 0.5-10,000 nM; read-out: PPARγ activation EC50
T1 sequence (P37231 1-505): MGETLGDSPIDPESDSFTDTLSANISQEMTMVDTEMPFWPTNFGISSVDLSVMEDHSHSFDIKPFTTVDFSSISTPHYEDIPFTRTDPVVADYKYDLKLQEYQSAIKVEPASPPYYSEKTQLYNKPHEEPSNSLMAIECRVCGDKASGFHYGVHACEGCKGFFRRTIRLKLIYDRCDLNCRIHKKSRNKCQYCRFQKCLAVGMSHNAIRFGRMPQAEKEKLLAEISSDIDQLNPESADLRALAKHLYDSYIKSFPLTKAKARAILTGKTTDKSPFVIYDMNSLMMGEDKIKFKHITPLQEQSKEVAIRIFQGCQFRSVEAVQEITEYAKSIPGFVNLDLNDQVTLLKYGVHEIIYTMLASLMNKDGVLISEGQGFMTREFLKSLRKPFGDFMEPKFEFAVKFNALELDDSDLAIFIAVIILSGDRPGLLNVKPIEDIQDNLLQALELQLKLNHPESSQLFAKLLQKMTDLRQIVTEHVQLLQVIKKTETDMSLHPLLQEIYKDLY
Experimental: FIG. 11a-11e illustrates modulation of anti-oxidant and inflammatory responses by 17-oxoDHA and 17-oxoDPA. RAW264.7 cells were treated with increasing concentration of 17-oxoDHA and 17-oxoDPA. (a) Cells were harvested 1 h after treatment and Nrf2 levels were quantified in nuclear extracts. (b) Cells were harvested 18 h after treatment and HO-1 and Nqo1 (upper band) levels were measured by western blot. (c, d) RAW264.7 cells were treated with increasing concentration of 17-oxoDHA and 17-oxoDPA for 6 h and Kdo2+IFNγ were added. Samples were collected at 12 h. IL-6, MCP-1 and IL-10 levels were measured in the cell media by Quantikine ELISA Kit (R&D Systems) and normalized by the total protein content (c); Nitrite levels were measured in the cell media and normalized by the total protein content and iNOS and Cox-2 levels were measured in total cell lysates (d); (e) PPARγ beta-lactamase reporter assays were performed for Rosiglitazone, 17-OxoDPA, 17-OxoDHA, 15d-PGJ2, 17-hydroxyDHA, DPA, and DHA with concentrations ranging from 0.5-10,000 nM.
The observation that oxo-fatty acids, such as 15d-PGJ2^30, 5-oxoEPA, 6-oxoOTE, and the synthetic 4-oxoDHA^31, covalently bind and activate the peroxisome proliferator-activated receptor γ (PPARγ), prompted the present inventors to test the ability of 17-oxoDPA, and 17-oxoDHA to activate PPARγ. […]

RAW264.7 cells = assay: GS-EFAD adducts in activated RAW264.7 cells; type: cell-based, murine; conditions: activated RAW264.7 cells + ASA
[1] = system: EFAD formation in RAW264.7 cells; assay: Inhibitor study: EFAD formation in RAW264.7 cells activated with Kdo2 and IFNγ; type: cell-based, murine
[2] = system: bone marrow-derived macrophage (BMDM) cells; assay: EFAD formation in activated bone marrow-derived macrophages ± ASA; type: cell-based, C57BL/6 murine; conditions: activated with Kdo2 and IFNγ, treated with ASA
Ovine placental COX-2 = target: T2, Ovine placental COX-2 (Ovis aries, UniProt P79208); assay: In vitro COX-2 reaction with DPA ± ASA; type: biochemical; conditions: purified ovine COX-2 + DPA 10 μM, 2 mM ASA
T2 construct: Ovine placental COX-2 (Cayman 60120) was also from Cayman Chemicals; purchased Cayman Chemicals 60120; host or cells: ovine placenta (tissue-derived, from the word 'placental')
T2 sequence (P79208 17-603): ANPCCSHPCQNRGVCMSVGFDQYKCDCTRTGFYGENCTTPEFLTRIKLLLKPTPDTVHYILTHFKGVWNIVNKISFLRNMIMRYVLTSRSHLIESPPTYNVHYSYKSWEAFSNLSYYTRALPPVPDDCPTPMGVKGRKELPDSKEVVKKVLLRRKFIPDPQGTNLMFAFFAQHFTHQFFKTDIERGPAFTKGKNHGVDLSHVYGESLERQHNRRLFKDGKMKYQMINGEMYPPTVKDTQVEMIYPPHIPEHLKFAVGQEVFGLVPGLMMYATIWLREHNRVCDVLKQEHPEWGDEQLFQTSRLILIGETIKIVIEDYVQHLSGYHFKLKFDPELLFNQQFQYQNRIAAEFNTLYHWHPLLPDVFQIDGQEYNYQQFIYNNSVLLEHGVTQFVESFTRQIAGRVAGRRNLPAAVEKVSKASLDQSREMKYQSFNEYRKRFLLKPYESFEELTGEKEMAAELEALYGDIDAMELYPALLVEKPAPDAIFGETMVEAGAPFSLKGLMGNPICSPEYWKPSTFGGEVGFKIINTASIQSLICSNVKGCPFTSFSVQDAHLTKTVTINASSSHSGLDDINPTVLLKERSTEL

[3] = RAW264.7 + Kdo2 + IFNγ, 20 h, ↓ decrease, ↑ increase, NE (not defined in patent)

SMILES	EC50 (PPARγ)	Formation of GS-adducts (RAW264.7 cells)	Increase of EFAD formation ([1]; ASA 200 μM, all EFADs except EFAD-4 and EFAD-6)	Effect of inhibitor on EFAD-1 formation [1, 3]	Effect of inhibitor on EFAD-2 formation [1, 3]	Effect of inhibitor on EFAD-3 formation [1, 3]	Effect of inhibitor on EFAD-4 formation [1, 3]	Effect of inhibitor on EFAD-5 formation [1, 3]	Effect of inhibitor on EFAD-6 formation [1, 3]	Extent of EFAD formation in BMDM [2]	Formation of OH-DPA by COX-2 (Ovine placental COX-2)
CCCCCC=CC=C1C(=O)C=C[C@@H]1CC=CCCCC(=O)O [15d-PGJ2, 15-deoxy-Δ (12,14)-prostaglandin J2]	~25 nM										
CC(=O)Oc1ccccc1C(=O)O [ASA, acetyl salicylic acid]		enhanced the formation of GS-adducts	about 2.5 fold	↑	↑	↑	↓	↑	↓	increased about two to three fold	increased the rate and extent of formation
